# Laboratory results from ChEMBL document CHEMBL4613209, “Quinolone hybrids and their anti-cancer activities: An overview” (Eur J Med Chem, 2019).
# What was measured:
# Assay type in all cases: functional, cell-based
# L1210 = experiment: Antiproliferative activity against mouse L1210 cells by MTT assay
# SMMC-7721 = experiment: Antiproliferative activity against human SMMC7721 cells by MTT assay
# HL-60 [1] = experiment: Antiproliferative activity against human HL60 cells by MTT assay
# SW480 = experiment: Cytotoxicity against human SW480 cells assessed as reduction in cell viability by MTT assay
# A-431 = experiment: Cytotoxicity against human A431 cells assessed as reduction in cell viability by MTT assay
# A549 = experiment: Antiproliferative activity against human A549 cells after 72 hrs by MTT assay; conditions: A549, 72 h
# HL-60 [2] = experiment: Antiproliferative activity against human HL60 cells after 72 hrs by MTT assay; conditions: HL-60, 72 h
# SK-MEL3 = experiment: Cytotoxicity against human SK-MEL-3 cells assessed as reduction in cell viability by MTT assay
# MCF7 = experiment: Cytotoxicity against human MCF7 cells assessed as reduction in cell viability by MTT assay
# EJ = experiment: Cytotoxicity against human EJ cells assessed as reduction in cell viability by MTT assay
# Hep 3B2 = experiment: Cytotoxicity against human Hep3B cells assessed as reduction in cell viability
# CAPAN-1 = experiment: Cytotoxicity against human Capan1 cells assessed as reduction in cell viability
# HL-60 [3] = experiment: Cytotoxicity against human HL60 cells assessed as reduction in cell viability
SMILES,IC50 (A549) [nM],IC50 (HL-60 [2]) [nM],IC50 (Hep 3B2) [µM],IC50 (CAPAN-1) [µM],IC50 (HL-60 [3]) [µM],also measured
COc1ccc(C2=NN=C3C(F)=Cc4c(n(C5CC5)cc(C(=O)O)c4=O)N3C2)cc1OC,,,,,,IC50 (L1210): 1 to 48.6 µM; IC50 (SMMC-7721): 1 to 48.6 µM; IC50 (HL-60 [1]): 1 to 48.6 µM
CCn1cc(C(=O)O)c(=O)c2cc(F)c(N3CCNCC3)cc21 [NORFLOXACIN],> 302,> 302,,,,IC50 (SW480): 137 to 238 µM; IC50 (A-431): 137 to 238 µM; IC50 (SK-MEL3): 137 to 238 µM; IC50 (MCF7): 137 to 238 µM; IC50 (EJ): 137 to 238 µM
COc1ccc(/C=c2\sc3nc(-c4cn(C5CC5)c5cc(N6CCN(C)CC6)c(F)cc5c4=O)nn3c2=O)cc1,,,> 10,> 10,> 10,
O=C(O)c1cn(C2CC2)c2c(c1=O)C=C(F)C1=NN=C(c3cccc(Cl)c3)CN12,,,,,,IC50 (L1210): 1 to 48.6 µM; IC50 (SMMC-7721): 1 to 48.6 µM; IC50 (HL-60 [1]): 1 to 48.6 µM
CN1CCN(c2cc3c(cc2F)c(=O)c(-c2nc4s/c(=C\c5ccc(C#N)cc5)c(=O)n4n2)cn3C2CC2)CC1,,,> 10,> 10,> 10,
COc1ccccc1/C=c1\sc2nc(-c3cn(C4CC4)c4cc(N5CCN(C)CC5)c(F)cc4c3=O)nn2c1=O,,,> 10,> 10,> 10,
O=C(O)c1cn(C2CC2)c2c(c1=O)C=C(F)C1=NN=C(c3ccc(F)cc3)CN12,,,,,,IC50 (L1210): 1 to 48.6 µM; IC50 (SMMC-7721): 1 to 48.6 µM; IC50 (HL-60 [1]): 1 to 48.6 µM
CN1CCN(c2cc3c(cc2F)c(=O)c(-c2nc4s/c(=C\c5ccc([N+](=O)[O-])cc5)c(=O)n4n2)cn3C2CC2)CC1,,,0.3 to 8.4,0.3 to 8.4,0.3 to 8.4,
COc1ccc(C2=NN=C3C(F)=Cc4c(n(C5CC5)cc(C(=O)O)c4=O)N3C2)cc1,,,,,,IC50 (L1210): 1 to 48.6 µM; IC50 (SMMC-7721): 1 to 48.6 µM; IC50 (HL-60 [1]): 1 to 48.6 µM
O=C(O)c1cn(C2CC2)c2c(c1=O)C=C(F)C1=NN=C(c3ccccc3)CN12,,,,,,IC50 (L1210): 1 to 48.6 µM; IC50 (SMMC-7721): 1 to 48.6 µM; IC50 (HL-60 [1]): 1 to 48.6 µM
COC(=O)c1cccc(/C=c2\sc3nc(-c4cn(C5CC5)c5cc(N6CCN(C)CC6)c(F)cc5c4=O)nn3c2=O)c1,,,0.3 to 8.4,0.3 to 8.4,0.3 to 8.4,
COC(=O)c1ccc(/C=c2\sc3nc(-c4cn(C5CC5)c5cc(N6CCN(C)CC6)c(F)cc5c4=O)nn3c2=O)cc1,,,0.3 to 8.4,0.3 to 8.4,0.3 to 8.4,
CN1CCN(c2cc3c(cc2F)c(=O)c(-c2nc4s/c(=C\c5ccc(C(=O)O)cc5)c(=O)n4n2)cn3C2CC2)CC1,,,0.3 to 8.4,0.3 to 8.4,0.3 to 8.4,
CCn1cc(C(=O)O)c(=O)c2cc(F)c(N3CCN(C(=N)NS(=O)(=O)c4ccc(C(F)(F)F)cc4)CC3)cc21,32 to 161,32 to 161,,,,
Nc1ccc(C2=NN=C3C(F)=Cc4c(n(C5CC5)cc(C(=O)O)c4=O)N3C2)cc1,,,,,,IC50 (L1210): 1 to 48.6 µM; IC50 (SMMC-7721): 1 to 48.6 µM; IC50 (HL-60 [1]): 1 to 48.6 µM

# Further lines, with some results ahead:
IC50 (A549) [nM],IC50 (HL-60 [2]) [nM],SMILES,IC50 (Hep 3B2) [µM],IC50 (CAPAN-1) [µM],IC50 (HL-60 [3]) [µM],also measured
32 to 79,32 to 79,CCn1cc(C(=O)O)c(=O)c2cc(F)c(N3CCN(C(=N)NS(=O)(=O)c4ccccc4Cl)CC3)cc21,,,,
32 to 161,32 to 161,N=C(NS(=O)(=O)c1cccc(Cl)c1)N1CCN(c2cc3c(cc2F)c(=O)c(C(=O)O)cn3C2CC2)CC1,,,,
32 to 79,32 to 79,N=C(NS(=O)(=O)c1ccccc1Cl)N1CCN(c2cc3c(cc2F)c(=O)c(C(=O)O)cn3C2CC2)CC1,,,,
32 to 161,32 to 161,CCn1cc(C(=O)O)c(=O)c2cc(F)c(N3CCN(C(=N)NS(=O)(=O)c4cccc(Cl)c4)CC3)cc21,,,,
32 to 161,32 to 161,CCn1cc(C(=O)O)c(=O)c2cc(F)c(N3CCN(C(=N)NS(=O)(=O)c4ccc(Cl)cc4)CC3)cc21,,,,
32 to 161,32 to 161,CCn1cc(C(=O)O)c(=O)c2cc(F)c(N3CCN(C(=N)NS(=O)(=O)c4ccccc4C(F)(F)F)CC3)cc21,,,,
32 to 161,32 to 161,N=C(NS(=O)(=O)c1ccccc1)N1CCN(c2cc3c(cc2F)c(=O)c(C(=O)O)cn3C2CC2)CC1,,,,
32 to 161,32 to 161,N=C(NS(=O)(=O)c1ccc(C(F)(F)F)cc1)N1CCN(c2cc3c(cc2F)c(=O)c(C(=O)O)cn3C2CC2)CC1,,,,
